Assay results reported in patent US9789153B2, “Composition for preventing cancer and treating cancer and intensifying the effects of other anticancer drugs” (priority 2014, dated 2017).

System: Cancer cells
Experiment: MTT assay-A positive control group
Type: cell-based
Settings: Triton X100 1%, positive control C2
Description: MTT (3-(4,5 dimethylthiazole-2-yl)-2,5-diphenyl tetrazolium bromide) is a proven cell viability indicator and this yellow colored tetrazolium salt gets reduced to purple colored formazan crystals by mitochondrial reductase enzyme seen only in metabolically active cells. It measures the cell proliferation rate and the reduction in cell viability when metabolic events lead to apoptosis or necrosis. Triplicate samples were analyzed and cell viability was calculated in percentage with respect to negative control group as follows Cell viability (%)=(Nt/Nc)×100 Nt is the absorbance of cells treated with sample and Nc is the absorbance of untreated cells (negative control group-Cell culture medium alone). The cell survival rate of negative control group is 100%. The results of MTT assays are shown in Figures, Wherein, the horizontal axis represents concentration of test sample and the vertical axis represents the cell survival rate. […]
Cancer cells were incubated for 2 days. […] Optical density of the solution was measured at a wavelength of 570 nm using a Beckmann Coulter Elisa plate reader (BioTek Power Wave XS). […]

Triton X100
cells killed: more than 90%
